Tested on: NCI-H196 complex spheroid viability
Experiment: Anticancer human tumor NCI-H196 cell line growth inhibition [LSD1];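 further: spheroids exposed to agents for 7 days before readout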;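 on viability, T/C: 100% = DMSO vehicle control viability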
Details: for IC50: curve of first compound; for viability, T/C: stronger effect = lower value
How it was run: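 Complex spheroids of tumor cells with HUVEC and human MSCs, exposed to iadademstat combined with other agents. Each agent tested in half-log steps from near clinical Cmax (else 10 microM top), DMSO ≤0.25%.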

[1] = second compound 0.1 µM, first compound 0.00316 µM
[2] = second compound 0.1 µM, first compound 0.01 µM
[3] = second compound 0.1 µM, first compound 0.0316 µM
[4] = second compound 0.1 µM, first compound 0.1 µM
[5] = second compound 0.316 µM, first compound 0.00316 µM
[6] = second compound 0.316 µM, first compound 0.01 µM
[7] = second compound 0.316 µM, first compound 0.0316 µM
[8] = second compound 0.316 µM, first compound 0.1 µM
[9] = second compound 1 µM, first compound 0.00316 µM
[10] = second compound 1 µM, first compound 0.01 µM
[11] = second compound 1 µM, first compound 0.0316 µM
[12] = second compound 1 µM, first compound 0.1 µM
[13] = second compound 3.16 µM, first compound 0.00316 µM
[14] = second compound 3.16 µM, first compound 0.01 µM
[15] = second compound 3.16 µM, first compound 0.0316 µM
[16] = second compound 3.16 µM, first compound 0.1 µM
[17] = second compound 10 µM, first compound 0.00316 µM
[18] = second compound 10 µM, first compound 0.01 µM
[19] = second compound 10 µM, first compound 0.0316 µM
[20] = second compound 10 µM, first compound 0.1 µM

COc1cc(Nc2ncc3c(n2)-c2ccc(Cl)cc2C(c2c(F)cccc2OC)=NC3)ccc1C(=O)O + NC1CC1c1ccc(-c2cccc(O)c2)cc1
IC50 (second compound 0.1 µM): > 1000 nM | IC50 (second compound 0.316 µM): > 1000 nM | IC50 (second compound 1 µM): > 1000 nM | IC50 (second compound 3.16 µM): > 1000 nM | IC50 (second compound 10 µM): > 1000 nM | viability, T/C [1]: 88.2% | viability, T/C [2]: 92.9% | viability, T/C [3]: 105% | viability, T/C [4]: 104% | viability, T/C (second compound 0.1 µM, first compound 0.316 µM): 121% | viability, T/C (second compound 0.1 µM, first compound 1 µM): 143% | viability, T/C [5]: 87.3% | viability, T/C [6]: 97.6% | viability, T/C [7]: 109% | viability, T/C [8]: 113% | viability, T/C (second compound 0.316 µM, first compound 0.316 µM): 120% | viability, T/C (second compound 0.316 µM, first compound 1 µM): 119% | viability, T/C [9]: 93% | viability, T/C [10]: 115% | viability, T/C [11]: 118% | viability, T/C [12]: 126% | viability, T/C (second compound 1 µM, first compound 0.316 µM): 116% | viability, T/C (second compound 1 µM, first compound 1 µM): 118% | viability, T/C [13]: 98.5% | viability, T/C [14]: 104% | viability, T/C [15]: 108% | viability, T/C [16]: 110% | viability, T/C (second compound 3.16 µM, first compound 0.316 µM): 124% | viability, T/C (second compound 3.16 µM, first compound 1 µM): 112% | viability, T/C [17]: 98.3% | viability, T/C [18]: 114% | viability, T/C [19]: 112% | viability, T/C [20]: 119% | viability, T/C (second compound 10 µM, first compound 0.316 µM): 125% | viability, T/C (second compound 10 µM, first compound 1 µM): 118%

Cn1ncnc1C1c2n[nH]c(=O)c3cc(F)cc(c23)NC1c1ccc(F)cc1 (stereo not given) + NC1CC1c1ccc(-c2cccc(O)c2)cc1
IC50 (second compound 0.1 µM): > 100 nM | IC50 (second compound 0.316 µM): > 100 nM | IC50 (second compound 1 µM): > 100 nM | IC50 (second compound 3.16 µM): > 100 nM | IC50 (second compound 10 µM): > 100 nM | viability, T/C (second compound 0.1 µM, first compound 0.000316 µM): 96.6% | viability, T/C (second compound 0.1 µM, first compound 0.001 µM): 100% | viability, T/C [1]: 102% | viability, T/C [2]: 100% | viability, T/C [3]: 94.3% | viability, T/C [4]: 98.3% | viability, T/C (second compound 0.316 µM, first compound 0.000316 µM): 104% | viability, T/C (second compound 0.316 µM, first compound 0.001 µM): 106% | viability, T/C [5]: 98.2% | viability, T/C [6]: 102% | viability, T/C [7]: 101% | viability, T/C [8]: 106% | viability, T/C (second compound 1 µM, first compound 0.000316 µM): 105% | viability, T/C (second compound 1 µM, first compound 0.001 µM): 98.9% | viability, T/C [9]: 101% | viability, T/C [10]: 103% | viability, T/C [11]: 104% | viability, T/C [12]: 106% | viability, T/C (second compound 3.16 µM, first compound 0.000316 µM): 92.2% | viability, T/C (second compound 3.16 µM, first compound 0.001 µM): 99.1% | viability, T/C [13]: 102% | viability, T/C [14]: 102% | viability, T/C [15]: 99.2% | viability, T/C [16]: 92.4% | viability, T/C (second compound 10 µM, first compound 0.000316 µM): 99.1% | viability, T/C (second compound 10 µM, first compound 0.001 µM): 104% | viability, T/C [17]: 95% | viability, T/C [18]: 104% | viability, T/C [19]: 97.7% | viability, T/C [20]: 91.4%

NS(=O)(=O)OCC1CC(n2ccc3c(NC4CCc5ccccc54)ncnc32)CC1O (stereo not given) + NC1CC1c1ccc(-c2cccc(O)c2)cc1
IC50 (second compound 0.1 µM): > 3000 nM | IC50 (second compound 0.316 µM): > 3000 nM | IC50 (second compound 1 µM): > 3000 nM | IC50 (second compound 3.16 µM): > 3000 nM | IC50 (second compound 10 µM): > 3000 nM | viability, T/C (second compound 0.1 µM, first compound 0.00949 µM): 83.6% | viability, T/C (second compound 0.1 µM, first compound 0.03 µM): 103% | viability, T/C (second compound 0.1 µM, first compound 0.0949 µM): 68% | viability, T/C (second compound 0.1 µM, first compound 0.3 µM): 82.2% | viability, T/C (second compound 0.1 µM, first compound 0.949 µM): 75.1% | viability, T/C (second compound 0.1 µM, first compound 3 µM): 57.5% | viability, T/C (second compound 0.316 µM, first compound 0.00949 µM): 77.8% | viability, T/C (second compound 0.316 µM, first compound 0.03 µM): 99.8% | viability, T/C (second compound 0.316 µM, first compound 0.0949 µM): 69.7% | viability, T/C (second compound 0.316 µM, first compound 0.3 µM): 80.5% | viability, T/C (second compound 0.316 µM, first compound 0.949 µM): 79.7% | viability, T/C (second compound 0.316 µM, first compound 3 µM): 60.7% | viability, T/C (second compound 1 µM, first compound 0.00949 µM): 72.3% | viability, T/C (second compound 1 µM, first compound 0.03 µM): 83.9% | viability, T/C (second compound 1 µM, first compound 0.0949 µM): 66.2% | viability, T/C (second compound 1 µM, first compound 0.3 µM): 72% | viability, T/C (second compound 1 µM, first compound 0.949 µM): 66% | viability, T/C (second compound 1 µM, first compound 3 µM): 63.6% | viability, T/C (second compound 3.16 µM, first compound 0.00949 µM): 71.6% | viability, T/C (second compound 3.16 µM, first compound 0.03 µM): 68.1% | viability, T/C (second compound 3.16 µM, first compound 0.0949 µM): 64.3% | viability, T/C (second compound 3.16 µM, first compound 0.3 µM): 68.7% | viability, T/C (second compound 3.16 µM, first compound 0.949 µM): 56% | viability, T/C (second compound 3.16 µM, first compound 3 µM): 64.3% | viability, T/C (second compound 10 µM, first compound 0.00949 µM): 64.4% | viability, T/C (second compound 10 µM, first compound 0.03 µM): 87.9% | viability, T/C (second compound 10 µM, first compound 0.0949 µM): 58.6% | viability, T/C (second compound 10 µM, first compound 0.3 µM): 65.8% | viability, T/C (second compound 10 µM, first compound 0.949 µM): 63% | viability, T/C (second compound 10 µM, first compound 3 µM): 57%
